The record followed here is US20230135635A1, “INHIBITORS OF ULK1/2 AND METHODS OF USING SAME” (SALK INSTITUTE FOR BIOLOGICAL STUDIES, priority 2020, published 2023).

The structures appear in SMILES notation. Where only a bound is given, the exact number is not on record here.

The first experiment concerns the target T1, recombinant human ULK1 protein (1-649) (Homo sapiens, UniProt O75385).
T1 construct: recombinant human ULK1 protein (1-649, SignalChem #U01-11G); purchased SignalChem U01-11G
T1 sequence (O75385 1-649): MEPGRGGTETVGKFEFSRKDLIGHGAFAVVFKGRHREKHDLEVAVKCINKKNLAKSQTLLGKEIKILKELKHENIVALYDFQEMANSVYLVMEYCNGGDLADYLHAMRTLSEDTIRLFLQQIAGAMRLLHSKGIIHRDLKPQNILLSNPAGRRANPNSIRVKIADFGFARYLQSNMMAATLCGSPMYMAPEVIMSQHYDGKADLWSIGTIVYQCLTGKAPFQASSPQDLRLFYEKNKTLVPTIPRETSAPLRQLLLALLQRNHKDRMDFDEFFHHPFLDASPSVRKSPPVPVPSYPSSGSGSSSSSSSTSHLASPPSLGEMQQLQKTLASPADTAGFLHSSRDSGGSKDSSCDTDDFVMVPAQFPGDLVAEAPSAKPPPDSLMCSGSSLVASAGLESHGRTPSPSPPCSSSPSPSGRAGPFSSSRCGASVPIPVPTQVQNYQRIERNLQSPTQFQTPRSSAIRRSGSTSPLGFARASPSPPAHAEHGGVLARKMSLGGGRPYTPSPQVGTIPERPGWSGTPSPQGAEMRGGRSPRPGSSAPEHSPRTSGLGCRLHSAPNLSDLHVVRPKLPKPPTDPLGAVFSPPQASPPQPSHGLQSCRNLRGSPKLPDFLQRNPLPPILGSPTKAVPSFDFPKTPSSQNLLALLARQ
Description: ULK1 inhibition assay (ADP Glo). The class given is biochemical. As to conditions: Table 1; 25 uM ATP, MBP substrate, one hour. The method, then: Illustrative compounds of Formula I and related analogs are shown in Table 1 (along with their respective IC50 values for ULK1 inhibition assays). For ADP Glo assay, IC50s are represented nM, with A representing IC50<1 nM, B representing 10 nM>IC50>1 nM, and C representing IC50>10 nM. NT indicates the compound was not tested. ULK1 inhibition assays were performed in a 5 uL reaction volume containing 2 ug/mL recombinant human ULK1 protein (1-649, SignalChem #U01-11G) and 80 ug/mL myelin basic protein (MBP, Sigma-Aldrich #M1891) in the presence of 25 uM ATP (Sigma-Aldrich A7699). ULK 1 inhibition was assessed after one hour. Compounds were tested in triplicate in a 16-dose IC50 mode with 3-fold serial dilution and a starting dose of 30 uM. Staurosporine, a non-selective protein kinase inhibitor, was used in the assay as a positive control.
According to another embodiment, the present disclosure provides methods of producing the above-defined compounds. The compounds may be synthesized using any suitable techniques. Advantageously, these compounds are conveniently synthesized from readily available starting materials. Synthetic chemistry transformations and methodologies useful in synthesizing the compounds described herein are known in the art and include, for example, those described in R. Larock, Comprehensive Organic Transformations (1989); T. W. Greene and P. G. M. Wuts, Protective Groups in Organic Synthesis, 2d. Ed. (1991); L. Fieser and M. Fieser, Fieser and Fieser's Reagents for Organic Synthesis (1994); and L. Paquette, ed., Encyclopedia of Reagents for Organic Synthesis (1995).). In general, synthesis and measurements of ULK1 inhibitory activity of the compounds described herein was performed using method analogous to those previously described in PCT International Application No. PCT/US2015/046777 which is hereby incorporated by reference in its entirety.
Background: In ADP-Glo the light output rises with the ADP produced.
Consider `CNC(=O)c1ccccc1Nc1nc(Nc2ccc3c(c2)CCN(C(=O)CN)C3)ncc1Br` [Compound A132, 2-{2-[2-(2-Amino-acetyl)-1,2,3,4-tetrahydro-isoquinolin-6-ylamino]-5-bromo-pyrimidin-4-ylamino}-N-methyl-benzamide], for which the IC50 (usually the midpoint of a concentration-inhibition curve) is more than 10 nM. The same measure, in the same setting: to `CNC(=O)c1ccccc1Nc1nc(Nc2ccc3c(c2)CCN(Cc2ccccn2)C3)ncc1Br` [Compound A144, 2-[5-Bromo-2-(2-pyridin-2-ylmethyl-1,2,3,4-tetrahydro-isoquinolin-6-ylamino)-pyrimidin-4-ylamino]-N-methyl-benzamide] belongs more than 10 nM; to `NCCN1CCc2ccc(Nc3ncc(C(F)(F)F)c(NC4CC4)n3)cc2C1` [Compound A103], 1 to 10 nM; to `N[C@@H](CO)C(=O)N1CCc2ccc(Nc3ncc(C(F)(F)F)c(NC4CC4)n3)cc2C1` [Compound A96], more than 10 nM. With `FC(F)(F)c1cnc(Nc2ccc3c(c2)CCN(CCS)C3)nc1NC1CC1` [Compound A23], the IC50 is less than 1 nM. Same read-out and setting: to `CNC(=O)c1ccccc1Nc1nc(Nc2ccc3c(c2)CN(C(=O)CN)CC3)ncc1Br` [Compound A152, 2-{2-[2-(2-Amino-acetyl)-1,2,3,4-tetrahydro-isoquinolin-7-ylamino]-5-bromo-pyrimidin-4-ylamino}-N-methyl-benzamide] belongs more than 10 nM; to `FC(F)(F)c1cnc(Nc2ccc3c(c2)CN(CC2CCNC2)CC3)nc1NC1CC1` (stereo not shown) [Compound A107], more than 10 nM. As to `NC(=O)CCN1CCc2cc(Nc3ncc(C(F)(F)F)c(NC4CC4)n3)ccc2C1` [Compound A58], the IC50 is less than 1 nM. On the same count and under the same terms, to `FC(F)(F)c1cnc(Nc2ccc3c(c2)CCN(C2COC2)C3)nc1NC1CC1` [Compound A9] belongs 1 to 10 nM. In the case of `FC(F)(F)c1cnc(Nc2ccc3c(c2)CCN(CCN2CCOCC2)C3)nc1NC1CC1` [Compound A5], the IC50 is less than 1 nM.

For `COC(=O)CC(=O)N1CCc2ccc(Nc3ncc(C(F)(F)F)c(NC4CC4)n3)cc2C1` [Compound A87], the IC50 was in the range of 1 to 10 nM. For `OCCN1CCc2cc(Nc3ncc(C(F)(F)F)c(NC4CC4)n3)ccc2C1` [Compound A53], the IC50 was less than 1 nM. Regarding `CNC(=O)c1ccccc1Oc1nc(Nc2ccc3c(c2)CCN(CCOC)C3)ncc1Cl` [Compound A124, 2-((5-chloro-2-((2-(2-methoxyethyl)-1,2,3,4-tetrahydroisoquinolin-6-yl)amino)pyrimidin-4-yl)oxy)-N-methylbenzamide], the IC50 is more than 10 nM. For `CN(C)CCN1CCc2cc(Nc3ncc(C(F)(F)F)c(NC4CC4)n3)ccc2C1` [Compound A44], the IC50 is less than 1 nM. For `O=S(=O)(C1CC1)N1CCc2cc(Nc3ncc(C(F)(F)F)c(NC4CC4)n3)ccc2C1` [Compound A116], the IC50 was in the range of 1 to 10 nM. With `FC(F)(F)c1cnc(Nc2ccc3c(c2)CN(Cc2cc[nH]c2)CC3)nc1NC1CC1` [Compound A94], the IC50 is 1 to 10 nM. For the molecule `FC(F)(F)c1cnc(Nc2ccc3c(c2)CN(Cc2ccncc2)CC3)nc1NC1CC1` [Compound A82], the IC50 is less than 1 nM. `FC(F)(F)c1cnc(Nc2ccc3c(c2)CCN(Cc2ccc[nH]2)C3)nc1NC1CC1` [Compound A93]: the IC50 fell in the range of 1 to 10 nM. With `CNC(=O)c1ccccc1Nc1nc(Nc2ccc3c(c2)CCN(Cc2cccnc2)C3)ncc1Br` [Compound A130, 2-[5-Bromo-2-(2-pyridin-3-ylmethyl-1,2,3,4-tetrahydro-isoquinolin-6-ylamino)-pyrimidin-4-ylamino]-N-methyl-benzamide], the IC50 is more than 10 nM. Same read-out and setting: the figure for `CN(C)c1ccc(CN2CCc3cc(Nc4ncc(C(F)(F)F)c(NC5CC5)n4)ccc3C2)cc1` [Compound A71] is less than 1 nM; for `CN1CCC(N2CCc3cc(Nc4ncc(C(F)(F)F)c(NC5CC5)n4)ccc3C2)CC1` [Compound A73] it is less than 1 nM.

For `CN1CCc2cc(Nc3ncc(C(N)=O)c(NC4CC4)n3)ccc2C1` [Compound A64], the IC50 is less than 1 nM. Take `CNC(=O)c1ccccc1Nc1nc(Nc2ccc3c(c2)CN(CCOC)CC3)ncc1Br` [Compound A149, 2-{5-Bromo-2-[2-(2-methoxy-ethyl)-1,2,3,4-tetrahydro-isoquinolin-7-ylamino]-pyrimidin-4-ylamino}-N-methyl-benzamide]: the half-inhibitory concentration (IC50) is more than 10 nM. Take `CNC(=O)c1ccccc1Nc1nc(Nc2ccc3c(c2)CCN(C(=O)[C@@H](N)CO)C3)ncc1Br` (racemic) [Compound A139, 2-{2-[2-(2-Amino-3-hydroxy-propionyl)-1,2,3,4-tetrahydro-isoquinolin-6-ylamino]-5-bromo-pyrimidin-4-ylamino}-N-methyl-benzamide]: the IC50 was more than 10 nM.

Consider `O=C(O)CCC(=O)N1CCc2cc(Nc3ncc(C(F)(F)F)c(NC4CC4)n3)ccc2C1` [Compound A20], for which the IC50 was less than 1 nM. As for `CNC(=O)c1ccccc1Nc1nc(Nc2ccc3c(c2)CN(Cc2ccncc2)CC3)ncc1Br` [Compound A162, 2-[5-Bromo-2-(2-pyridin-4-ylmethyl-1,2,3,4-tetrahydro-isoquinolin-7-ylamino)-pyrimidin-4-ylamino]-N-methyl-benzamide], the IC50 was more than 10 nM. The same measure, in the same setting: the figure for `N[C@@H](CO)C(=O)N1CCc2cc(Nc3ncc(C(F)(F)F)c(NC4CC4)n3)ccc2C1` (stereo in doubt) [Compound A57] is 1 to 10 nM.

The experiment is the same for the next values; noted with them: Table 2.
On to `COC(=O)c1ccccc1Oc1nc(Nc2ccc(SC)cc2)ncc1Br` [Compound B32], for which the IC50 was more than 1000 nM. Turning to `COC(=O)c1ccccc1Oc1nc(Nc2ccc(OC)cc2)ncc1Br` [Compound B19], the IC50 is more than 1000 nM.

As to `COc1cc(Nc2ncc(Br)c(Oc3ccccc3C(=O)NCC(F)(F)F)n2)cc(OC)c1OC` [Compound B6], the IC50 fell in the range of 100 to 1000 nM.

On to `COC(=O)c1ccccc1Oc1nc(Nc2cccc(OC)c2)ncc1Br` [Compound B23], for which the IC50 is more than 1000 nM. The same measure, in the same setting: the figure for `COC(=O)c1ccc(Nc2ncc(Br)c(Oc3ccccc3C(=O)OC)n2)cc1` [Compound B43] is more than 1000 nM.

With `COC(=O)c1ccccc1Oc1nc(Nc2ccc3c(c2)OCCO3)ncc1Br` [Compound B14], the half-inhibitory concentration (IC50) is more than 1000 nM.

Staying with this experiment, now noted: Table 3.
Regarding `CNC(=O)c1ccccc1Nc1nc(Nc2ccc(OC)cc2)ncc1Br` [Compound E15, 2-((5-Bromo-2-((4-methoxyphenyl)amino)pyrimidin-4-yl)amino)-N-methylbenzamide], the IC50 is more than 100 nM. Regarding `COc1cc(Nc2ncc(Br)c(Nc3ccccc3C(=O)NCC(F)F)n2)cc(OC)c1OC` [Compound E22, 2-((5-Bromo-2-((3,4,5-trimethoxyphenyl)amino)pyrimidin-4-yl)amino)-N-(2,2-difluoroethyl)benzamide], the IC50 lay within 5 to 100 nM. In the case of `OCc1ccccc1Nc1nc(Nc2ccccc2)ncc1Br` [Compound C4], the IC50 is more than 100 nM. As to `COc1cc(Nc2ncc(Br)c(Nc3ccccc3CNCC(N)=O)n2)cc(OC)c1OC` [Compound C25], the IC50 was in the range of 5 to 100 nM. `COc1cc(Nc2ncc(Br)c(Nc3ccccc3COC(=O)N3CCOCC3)n2)cc(OC)c1OC` [Compound C21]: the IC50 is more than 100 nM. On the same count and under the same terms, the figure for `CC(=O)Nc1ccc(Nc2ncc(Br)c(Nc3ccccc3CO)n2)cc1` [Compound C7] is 5 to 100 nM; for `COc1cc(Nc2ncc(Br)c(Nc3ccccc3COC(C)=O)n2)cc(OC)c1OC` [Compound C17] it is 5 to 100 nM.

Consider `O=c1[nH]c2ccc(Nc3ncc(C(F)(F)F)c(NC4CC4)n3)cc2[nH]1` [Compound D1], for which the IC50 was 5 to 100 nM. In the case of `COc1cc(Nc2ncc(Br)c(Nc3ccccc3SC)n2)cc(OC)c1OC` [Compound E3], the IC50 lay in the range of 5 to 100 nM.

In the case of `CNC(=O)c1ccccc1Nc1nc(Nc2ccc(OC(F)(F)F)cc2)ncc1Br` [Compound E19, 2-((5-Bromo-2-((4-(trifluoromethoxy)phenyl)amino)pyrimidin-4-yl)amino)-N-methylbenzamide], the IC50 is more than 100 nM.
